Series [1] is described as follows: Water Solubility Assay (measured in pH 7.8 buffer).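 Further: precipitation onset detected as rise in absorbance at 650 nm across increasing concentrations, after shaking for 18 h, blank wells receiving DMSO only.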 The format is physicochemical. As to conditions: 25 °C.
In series [2] the target is Human recombinant cyclophilin A (Cyp A) (Homo sapiens, UniProt P62937). Kind of series: Protease-free PPIase assay.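 Further: cis to trans isomerization of SUC-AAPF-pNA by 2 nM enzyme, read as absorbance at 330 nm over 300 s at 10 °C, catalytic rate corrected for uncatalyzed background.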
Human recombinant cyclophilin A (Cyp A), sequence (P62937 whole entry): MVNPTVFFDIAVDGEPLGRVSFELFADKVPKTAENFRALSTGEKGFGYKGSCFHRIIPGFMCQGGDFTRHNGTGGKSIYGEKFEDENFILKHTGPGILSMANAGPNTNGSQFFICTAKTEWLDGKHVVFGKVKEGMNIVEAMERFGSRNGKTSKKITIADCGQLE
Where [3] appears, read: pH 7.8, aqueous buffer, kinetic from dmso stock.

In brackets after ≈: the same amount, converted by molar mass. Like-named read-outs stand apart in the source and are kept apart here.

For `CC[C@H]1NC(=O)[C@@H]([C@H](O)[C@H](C)CCN(C)CCOC)N(C)C(=O)[C@@H](C(C)C)N(C)C(=O)[C@@H](CC(C)C)N(C)C(=O)[C@@H](CC(C)C)N(C)C(=O)[C@H](C)NC(=O)[C@@H](C)NC(=O)[C@@H](CC(C)C)N(C)C(=O)[C@@H](C(C)C)NC(=O)[C@H](CC(C)C)N(C)C(=O)[C@@H](C)N(C)C1=O` [Compound AG], the solubility at 18 h in series [1] (35 mM HEPES pH 7.8, 1% DMSO, 18 h, read-out: Water Solubility Assay, concentration at which the compound remains in solution) is listed as more than 100 µM. Further, the Ki (in general, the equilibrium dissociation constant of an inhibitor or competing ligand from its target) in series [2] (read-out: Protease-free PPIase Assay Ki, cyclophilin A, 10 °C) came out at 18 nM.
On to `CC[C@H]1NC(=O)[C@@H]([C@H](O)[C@H](C)CCCCCN(CC)CC)N(C)C(=O)[C@@H](C(C)C)N(C)C(=O)[C@@H](CC(C)C)N(C)C(=O)[C@@H](CC(C)C)N(C)C(=O)[C@H](C)NC(=O)[C@@H](C)NC(=O)[C@@H](CC(C)C)N(C)C(=O)[C@@H](C(C)C)NC(=O)[C@H](CC(C)C)N(C)C(=O)[C@@H](C)N(C)C1=O` [Compound AH, [(6R,7R,8S)-7-Hydroxy-6-methyl-8-(methylamino)-1-N-diethylamino-nonanoic acid]^1[(R)-methyl-Sar]^3 cyclosporin A], for which the solubility at 18 h in series [1] (setting [3]) is more than 100 µM. Further, the Ki in series [2] amounted to 4.7 nM.
For the compound `CC[C@H]1NC(=O)[C@@H]([C@H](O)[C@H](C)CCCCCNCCOC)N(C)C(=O)[C@@H](C(C)C)N(C)C(=O)[C@@H](CC(C)C)N(C)C(=O)[C@@H](CC(C)C)N(C)C(=O)[C@H](C)NC(=O)[C@@H](C)NC(=O)[C@@H](CC(C)C)N(C)C(=O)[C@@H](C(C)C)NC(=O)[C@H](CC(C)C)N(C)C(=O)[C@@H](C)N(C)C1=O` [Compound AI, [(6R,7R,8S)-7-Hydroxy-6-methyl-8-(methylamino)-1-N-(2-methoxy)ethylamino-nonanoic acid]^1[(R)-methyl-Sar]^3 cyclosporin A], the solubility at 18 h in series [1] (setting [3]) was more than 100 µM. Moreover, the Ki in series [2] came to 3.3 nM.
For `CS[C@@H]1C(=O)N(C)[C@@H](CC(C)C)C(=O)N[C@H](C(C)C)C(=O)N(C)[C@H](CC(C)C)C(=O)N[C@H](C)C(=O)N[C@@H](C)C(=O)N(C)[C@H](CC(C)C)C(=O)N(C)[C@H](CC(C)C)C(=O)N(C)[C@H](C(C)C)C(=O)N(C)[C@H]([C@H](O)[C@H](C)CCN2CCOCC2)C(=O)N[C@H](C(C)C)C(=O)N1C` [Compound AM, [(3R,4R,5S)-4-Hydroxy-3-methyl-5-(methylamino)-1-morpholino-hexanoic acid]^1[(S)-thio-methyl-Sar]^3 cyclosporin D] the same measures were 25 to 50 µM (≈ 33 to 66.1 µg/mL) and 1.9 nM.
In series [1] (setting [3]), `CC[C@H]1NC(=O)[C@@H]([C@H](O)[C@H](C)CCN2CCOCC2)N(C)C(=O)[C@@H](C(C)C)N(C)C(=O)[C@@H](CC(C)C)N(C)C(=O)[C@@H](CC(C)C)N(C)C(=O)[C@H](C)NC(=O)[C@@H](C)NC(=O)[C@@H](CC(C)C)N(C)C(=O)[C@@H](C(C)C)NC(=O)[C@H](CC(C)C)N(C)C(=O)[C@@H](OC)N(C)C1=O` [Compound B, [(3R,4R,5S)-4-Hydroxy-3-methyl-5-(methylamino)-1-N-morpholino-hexanoic acid]^1[(S)-methoxy-Sar]^3 cyclosporin A] displayed a solubility at 18 h of more than 100 µM. Also, the Ki in series [2] is 8 nM.
Turning to `CC[C@H]1NC(=O)[C@@H]([C@H](O)[C@H](C)CCCCCN2CCOCC2)N(C)C(=O)[C@@H](C(C)C)N(C)C(=O)[C@@H](CC(C)C)N(C)C(=O)[C@@H](CC(C)C)N(C)C(=O)[C@H](C)NC(=O)[C@@H](C)NC(=O)[C@@H](CC(C)C)N(C)C(=O)[C@@H](C(C)C)NC(=O)[C@H](CC(C)C)N(C)C(=O)CN(C)C1=O` [Compound C, [(6R,7R,8S)-7-Hydroxy-6-methyl-8-(methylamino)-1-N-morpholinyl-nonanoic acid]^1 cyclosporin A], the solubility at 18 h in series [1] (35 mM HEPES buffer pH 7.8, aqueous buffer, kinetic from dmso stock, 35 mM HEPES pH 7.8, 1% DMSO, 18 h, read-out: Water Solubility Assay, concentration at which the compound remains in solution) was more than 100 µM. The Ki in series [2] was 14 nM.
The compound `CC[C@H]1NC(=O)[C@@H]([C@H](O)[C@H](C)CCN2CCOCC2)N(C)C(=O)[C@@H](C(C)C)N(C)C(=O)[C@@H](CC(C)C)N(C)C(=O)[C@@H](CC(C)C)N(C)C(=O)[C@H](C)NC(=O)[C@@H](C)NC(=O)[C@@H](CC(C)C)N(C)C(=O)[C@@H](C(C)C)NC(=O)[C@H](CC(C)C)N(C)C(=O)[C@@H](COC)N(C)C1=O` [Compound D, [(3R,4R,5S)-4-Hydroxy-3-methyl-5-(methylamino)-1-N-morpholino-hexanoic acid]^1[(R)-methoxymethylene-Sar]^3 cyclosporin A] gave a solubility at 18 h in series [1] (setting [3]) of 75 to 100 µM (≈ 97.9 to 131 µg/mL). Also, in series [2], the Ki turned out to be 10 nM.
As for `CC[C@H]1NC(=O)[C@@H]([C@H](O)[C@H](C)CCN(C)Cc2cnn(C)c2)N(C)C(=O)[C@@H](C(C)C)N(C)C(=O)[C@@H](CC(C)C)N(C)C(=O)[C@@H](CC(C)C)N(C)C(=O)[C@H](C)NC(=O)[C@@H](C)NC(=O)[C@@H](CC(C)C)N(C)C(=O)[C@@H](C(C)C)NC(=O)[C@H](CC(C)C)N(C)C(=O)[C@@H](C)N(C)C1=O` [Compound DM, [(3R,4R,5S)-4-Hydroxy-3-methyl-5-(methylamino)-1-({1-methyl-1H-pyrazol-4-ylmethyl}-methylamino)-hexanoic acid]^1[(R)-methyl-Sar]^3 cyclosporin A], the Ki in series [2] turned out to be 23 nM.
Turning to `CC[C@H]1NC(=O)[C@@H]([C@H](O)[C@H](C)CCN(C)Cc2ccc(F)cn2)N(C)C(=O)[C@@H](C(C)C)N(C)C(=O)[C@@H](CC(C)C)N(C)C(=O)[C@@H](CC(C)C)N(C)C(=O)[C@H](C)NC(=O)[C@@H](C)NC(=O)[C@@H](CC(C)C)N(C)C(=O)[C@@H](C(C)C)NC(=O)[C@H](CC(C)C)N(C)C(=O)[C@@H](C)N(C)C1=O` [Compound DP, [(3R,4R,5S)-4-Hydroxy-3-methyl-5-(methylamino)-1-({5-fluoro-pyridin-2-ylmethyl}-methylamino)-hexanoic acid]^1[(R)-methyl-Sar]^3 cyclosporin A], in series [2], the Ki amounted to 16.2 nM.
Still for that read-out and setting: then `CC[C@H]1NC(=O)[C@@H]([C@H](O)[C@H](C)CCN(C)Cc2ccc(Cl)cn2)N(C)C(=O)[C@@H](C(C)C)N(C)C(=O)[C@@H](CC(C)C)N(C)C(=O)[C@@H](CC(C)C)N(C)C(=O)[C@H](C)NC(=O)[C@@H](C)NC(=O)[C@@H](CC(C)C)N(C)C(=O)[C@@H](C(C)C)NC(=O)[C@H](CC(C)C)N(C)C(=O)[C@@H](C)N(C)C1=O` [Compound DQ, [(3R,4R,5S)-4-Hydroxy-3-methyl-5-(methylamino)-1-({5-chloro-pyridin-2-ylmethyl}-methylamino)-hexanoic acid]^1[(R)-methyl-Sar]^3 cyclosporin A], with 11 nM; and `CC[C@H]1NC(=O)[C@@H]([C@H](O)[C@H](C)CCN(C)Cc2ncccc2C(F)(F)F)N(C)C(=O)[C@@H](C(C)C)N(C)C(=O)[C@@H](CC(C)C)N(C)C(=O)[C@@H](CC(C)C)N(C)C(=O)[C@H](C)NC(=O)[C@@H](C)NC(=O)[C@@H](CC(C)C)N(C)C(=O)[C@@H](C(C)C)NC(=O)[C@H](CC(C)C)N(C)C(=O)[C@@H](C)N(C)C1=O` [Compound DR, [(3R,4R,5S)-4-Hydroxy-3-methyl-5-(methylamino)-1-({3-trifluoromethyl-pyridin-2-ylmethyl}-methylamino)-hexanoic acid]^1[(R)-methyl-Sar]^3 cyclosporin A], with 8.4 nM.
Same read-out and setting: then `CC[C@H]1NC(=O)[C@@H]([C@H](O)[C@H](C)CCN2CCCCC2)N(C)C(=O)[C@@H](C(C)C)N(C)C(=O)[C@@H](CC(C)C)N(C)C(=O)[C@@H](CC(C)C)N(C)C(=O)[C@H](C)NC(=O)[C@@H](C)NC(=O)C(CC(C)C)N(C)C(=O)[C@@H](C(C)C)NC(=O)[C@H](CC(C)C)N(C)C(=O)[C@@H](C)N(C)C1=O` (stereo partly drawn) [Compound EA, [(3R,4R,5S)-4-Hydroxy-3-methyl-5-(methylamino)-1-(piperidin-1-yl)-hexanoic acid]^1[(R)-methyl-Sar]^3 cyclosporin A], with 22 nM; and `CC[C@H]1NC(=O)[C@@H]([C@H](O)[C@H](C)CCN2CCCC2)N(C)C(=O)[C@@H](C(C)C)N(C)C(=O)[C@@H](CC(C)C)N(C)C(=O)[C@@H](CC(C)C)N(C)C(=O)[C@H](C)NC(=O)[C@@H](C)NC(=O)C(CC(C)C)N(C)C(=O)[C@@H](C(C)C)NC(=O)[C@H](CC(C)C)N(C)C(=O)[C@@H](C)N(C)C1=O` (stereo partly drawn) [Compound EF, [(3R,4R,5S)-4-Hydroxy-3-methyl-5-(methylamino)-1-(pyrrolidin-1-yl)-hexanoic acid]^1[(R)-methyl-Sar]^3 cyclosporin A], with 40 nM.
For the compound `CC[C@H]1NC(=O)[C@@H]([C@H](O)[C@H](C)CCCCN(C)C)N(C)C(=O)[C@@H](C(C)C)N(C)C(=O)[C@@H](CC(C)C)N(C)C(=O)[C@@H](CC(C)C)N(C)C(=O)[C@H](C)NC(=O)[C@@H](C)NC(=O)[C@@H](CC(C)C)N(C)C(=O)[C@@H](C(C)C)NC(=O)[C@H](CC(C)C)N(C)C(=O)[C@@H](C)N(C)C1=O` [Compound KF, [(5R,6R,7S)-1-(dimethylamino)-6-hydroxy-5-methyl-7-(methylamino)-octanoic acid]^1[(R)-methyl-Sar]^3 cyclosporin A], in series [2], the Ki stood at 7.8 nM.
Consider `CC[C@H]1NC(=O)[C@@H]([C@H](O)[C@H](C)CCCCN2CCOCC2)N(C)C(=O)[C@@H](C(C)C)N(C)C(=O)[C@@H](CC(C)C)N(C)C(=O)[C@@H](CC(C)C)N(C)C(=O)[C@H](C)NC(=O)[C@@H](C)NC(=O)[C@@H](CC(C)C)N(C)C(=O)[C@@H](C(C)C)NC(=O)[C@H](CC(C)C)N(C)C(=O)[C@@H](C)N(C)C1=O` [Compound KG, [(5R,6R,7S)-6-hydroxy-5-methyl-7-(methylamino)-1-(N-morpholino)-octanoic acid]^1[(R)-methyl-Sar]^3 cyclosporin A], for which, in series [2], the Ki stood at 3.8 nM.

The values are drawn from patent US20160039880A1 (priority 2012, published 2016).
